Laboratory results reported in the NIST ThermoML archive (doi:10.1016/j.fluid.2013.03.030).
± gives the expanded uncertainty stated by the source.

Tests used:
[1] = xn = mol fraction of the nth substance listed; details: 298.15 K, 100 kPa, Liquid, Sing-around technique in a fixed-path interferometer
[2] = wn = mass fraction of the nth substance listed; details: 298.15 K, 100 kPa, Liquid; for viscosity: Capillary tube (Ostwald / Ubbelohde) method; for mass density: Vibrating tube method
[3] = refractive index (other wavelength) (dimensionless); wn = mass fraction of the nth substance listed; details: 298.15 K, 100 kPa, Liquid, Wavelength=589.3 nm, Digital Refractometer Mettler Toledo

Q: With CCCC[P+](CCCC)(CCCC)CCCC.F[B-](F)(F)F [tetrabutylphosphonium tetrafluoroborate] + O as the compound, how does the speed of sound ([1]; x1 = 0.001) read?
A: 1498.9 ± 5.1 m/s

Q: What about the speed of sound ([1]; x1 = 0.003) of the same compound?
A: 1502.6 ± 5.1 m/s

Q: And the speed of sound ([1]; x1 = 0.005)?
A: 1507.5 ± 5 m/s

Q: And the viscosity ([2]; w1 = 0.001)?
A: 0.901 ± 0.024 mPa·s

Q: What about the viscosity ([2]; w1 = 0.003) of the same compound?
A: 0.909 ± 0.024 mPa·s

Q: And the viscosity ([2]; w1 = 0.005)?
A: 0.914 ± 0.024 mPa·s

Q: And the mass density ([2]; w1 = 0.001)?
A: 997.16 ± 5.4 kg/m3

Q: And the mass density ([2]; w1 = 0.003)?
A: 998.67 ± 5.4 kg/m3

Q: What about the mass density ([2]; w1 = 0.005) of the same compound?
A: 1000.05 ± 5.4 kg/m3

Q: What about the refractive index ([3]; w1 = 0.001) of the same compound?
A: 1.3326 ± 0.0011

Q: What about the refractive index ([3]; w1 = 0.003) of the same compound?
A: 1.3333 ± 0.0011

Q: What about the refractive index ([3]; w1 = 0.005) of the same compound?
A: 1.3341 ± 0.0011
